Experiments:
[1] = tested on: HTRA2-specific interaction partners FNLA, NCKAP1, POTEE, PSMC1, SEC13; experiment: Targeted MS analysis (accurate inclusion mass screening, AIMS) of HTRA2 Co-IP eluates; parameters: species or system house swine (Sus scrofa); settings: repeated Co-IP, n = 3 biological replicates, Figure S3, CDR p < 0.05, UCF-101 p > 0.05
Excerpt: Thereby, the peptides of interest were listed in the software inclusion list and the LTQ Orbitrap XL MS system only required MS/MS scans of the parent ions if the listed peptide was detected with an accurate mass and charge state. […] The selected peptides needed to be fully tryptic with a maximum of one missed cleavage, as described earlier. For this experiment, we repeated the Co-IP of the HTRA2-specific protein interaction partners ± treatments (see method Section 2.4) and subjected the respective eluate fractions to further in-solution trypsin digestion, as described elsewhere. In this case, the LTQ Orbitrap XL MS system was coupled online to an EASY-nLC 1200 system (Thermo Fisher Scientific, Rockford, IL, USA) using a PepMap C18 column system (75 µm × 500 mm; Thermo Fisher Scientific, Rockford, IL, USA). The dynamic exclusion mode was applied as follows: repeat count = 3, repeat duration = 30 s, exclusion size list = 100, exclusion time = 180 s, and the exclusion mass width ± 10 ppm. Protein identification and quantification were performed as described in Section 2.7.
For further validation of the HTRA2-specific interaction partners, we performed a targeted MS analysis via accurate inclusion mass screening (AIMS) technology. […] This time, the LC-MS system “only” recorded the unique peptide sequences of the previously identified HTRA2 interaction partners. […]

[2] = biological target: T1, recombinant HTRA2 protein (Homo sapiens, UniProt O43464); experiment: HTRA2 protease activity assay with fluorescent H2-optimal substrate; format: biochemical; settings: for Average degradation rate of the optimal substrate H2 by HTRA2 (enzymatic reaction rate per minute): pH 8.0, RT, untreated positive control 229 U/min
T1 construct: 6xHis (C); purchased Novoprotein Scientific INC., Summit, NJ, USA
T1 sequence (O43464 134-458): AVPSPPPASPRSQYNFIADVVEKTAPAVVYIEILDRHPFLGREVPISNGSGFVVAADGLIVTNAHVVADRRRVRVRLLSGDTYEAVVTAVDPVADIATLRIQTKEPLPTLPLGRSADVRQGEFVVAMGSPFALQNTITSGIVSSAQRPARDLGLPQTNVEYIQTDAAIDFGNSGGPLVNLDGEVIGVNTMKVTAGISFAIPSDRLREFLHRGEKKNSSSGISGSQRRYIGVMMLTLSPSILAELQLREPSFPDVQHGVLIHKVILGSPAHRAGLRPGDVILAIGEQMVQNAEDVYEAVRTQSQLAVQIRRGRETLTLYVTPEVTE
Protocol: The HTRA2 protease activity assay was performed as described by Martins et al. (2003), but with some slight modifications. The experiment was performed with 100 nM recombinant HTRA2 protein (Novoprotein Scientific INC., Summit, NJ, USA) in a protease assay buffer (50 mM tris(hydroxymethyl)-aminomethane (TRIS), 0.5 mM ethylenediaminetetraacetic acid (EDTA), and 1 mM dithiothreitol (DTT), pH 8.0) containing 10 µM H2-optimal substrate (Innovagen AB, Lund, Sweden). The H2-optimal substrate is commonly used to measure the protease activity of HTRA2 and consists of a structural quencher and a fluorophore unit. The cleavage of the substrate leads to the disruption of the quencher/fluorophore complex and the degradation rate can be measured by fluorescence. The different sample groups were treated with 50 µM PDZ-Opt, 50 µM PDZ-Sub, 50 µM synthetic CDR1 peptide, or 30 µM UCF-101, respectively. The drug compound UCF-101 is an inhibitor of the catalytic domain of HTRA2 and was purchased from Sigma Aldrich (Darmstadt, Germany). The concentrations of the peptide ligands for the HTRA2 protease activity assay were chosen from the previous publication. The concentration of UCF-101 was determined to be optimal from the preliminary experiments. In addition, a positive control containing only 100 nM recombinant HTRA2 and a negative control (only protease assay buffer) were included in this experiment. All of the sample groups were incubated for 1 h at 37 °C to determine the maximum degradation rate of HTRA2. For the analysis of the enzymatic reaction rate of HTRA2, all samples were measured subsequently after the addition of the 10 µM H2-optimal substrate at RT. Fluorescence was monitored on a Spark® 10 M multimode microplate-reader (Tecan Trading AG, Männedorf, Switzerland) with an excitation at 320 nm and a fluorescence emission at 405 nm. The fluorescence background of the substrate was substracted from the fluorescence intensities of the different the sample groups to normalize the data.
To determine the proteolytic activity of HTRA2 we used the fluorescent H2 optimal substrate developed by Martins et al. (2003). The optimal substrate H2 encoded a short specific amino acid sequence, which is preferentially cleaved by HTRA2, and was also modified with a fluorescent dye and quencher. […] Under physiological conditions, the proteolytic activity of HTRA2 is suppressed by the C-terminal PDZ domain, which blocks the access of potential substrates to the catalytic domain by steric hindrance. The binding of short hydrophobic polypeptides to the allosteric PDZ domain can induce specific conformational changes of HTRA2 and are able to regulate its proteolytic activity. Therefore, Martins et al. (2003) specifically designed the peptide ligands PDZ-Opt (GQYYFV) and PDZ-Sub (GGIRRV), which are known to increase the proteolytic activity of HTRA2 in this assay.

Molecule | Abundances of the co-enriched target proteins FNLA, NCKAP1, POTEE, PSMC1 and SEC13 compared with the HTRA2 group [1] | Decrease of the average degradation rate of the optimal substrate H2 compared with the untreated positive control ([2]; 50 µM peptide, 100 nM HTRA2, 10 µM substrate, RT) | Average degradation rate of the optimal substrate H2 by HTRA2 (enzymatic reaction rate per minute) ([2]; 50 µM peptide, 100 nM recombinant HTRA2, 10 µM H2-optimal substrate, fluorescence ex 320 nm / em 405 nm) | Maximum degradation rate of the H2 optimal substrate by HTRA2 ([2]; 50 µM peptide, 1 h at 37 °C, n = 3, Figure 1C) | Inhibition of the proteolytic activity of HTRA2 ([2]; specific protease function assay, p < 0.01 (abstract)) | Average degradation rate of the optimal substrate H2 by HTRA2 (enzymatic reaction rate per minute) ([2]; 30 µM UCF-101, 100 nM recombinant HTRA2, 10 µM H2-optimal substrate)
ASGYTFTNYGLSWVR [CDR, synthetic peptide encoding a complementary-determining region 1 (CDR1) of polyclonal antibody molecules] | significantly diminished | around 45% | 127 U/min | significantly decreased | up to 50% | –
O=C1C(=Cc2ccc(-c3ccccc3[N+](=O)[O-])o2)C(=O)N(c2ccccc2)C(=S)N1c1ccccc1 [UCF-101, reference compound] | slight decrease | – | – | – | – | 0 U/min

Source: article PMC8427973, “Regulation of the HTRA2 Protease Activity by an Inhibitory Antibody-Derived Peptide Ligand and the Influence on HTRA2-Specific Protein Interaction Networks in Retinal Tissues” (Biomedicines, 2021)
